Laboratory results as given in ChEMBL document CHEMBL4616613, “Phosphine boranes as less hydrophobic building blocks than alkanes and silanes: Structure-property relationship and estrogen-receptor-modulating potency of 4-phosphinophenol derivatives” (Bioorg Med Chem, 2020).

Tests used:
physchem [1] = experiment: physchem
Description: Acid dissociation constant, pKa of the compound by UV spectral absorption analysis

physchem [2] = conditions: 1-octanol/water
Description: 1-Octanol-water partition coefficient, log P of the compound by HPLC analysis

Estrogen receptor [3] = biological target: T1, Estrogen receptor (Homo sapiens, UniProt P03372)
T1 sequence (P03372 whole entry): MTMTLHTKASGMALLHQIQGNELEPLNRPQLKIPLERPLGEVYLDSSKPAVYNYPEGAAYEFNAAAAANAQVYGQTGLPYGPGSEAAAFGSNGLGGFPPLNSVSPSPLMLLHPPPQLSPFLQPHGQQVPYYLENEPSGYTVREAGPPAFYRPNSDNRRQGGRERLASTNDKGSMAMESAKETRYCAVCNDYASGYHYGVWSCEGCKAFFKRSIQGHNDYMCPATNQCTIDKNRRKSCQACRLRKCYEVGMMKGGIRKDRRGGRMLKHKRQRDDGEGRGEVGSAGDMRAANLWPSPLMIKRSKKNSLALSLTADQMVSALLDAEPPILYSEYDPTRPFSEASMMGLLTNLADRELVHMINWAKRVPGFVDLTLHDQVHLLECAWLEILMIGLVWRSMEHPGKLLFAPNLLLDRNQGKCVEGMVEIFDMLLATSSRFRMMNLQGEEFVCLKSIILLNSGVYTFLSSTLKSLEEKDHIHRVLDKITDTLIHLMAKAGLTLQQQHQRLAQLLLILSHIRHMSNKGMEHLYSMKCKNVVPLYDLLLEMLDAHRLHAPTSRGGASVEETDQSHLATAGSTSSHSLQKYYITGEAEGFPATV
Description: (§1) Antagonist activity at human Gal4-fused ERalpha expressed in HEK293 cells assessed as inhibition of E2-induced transcriptional activation after 24 hrs by luciferase/beta-galactosidase reporter gene assay

Estrogen receptor beta [4] = biological target: T2, Estrogen receptor beta (Homo sapiens, UniProt Q92731)
T2 sequence (Q92731 whole entry): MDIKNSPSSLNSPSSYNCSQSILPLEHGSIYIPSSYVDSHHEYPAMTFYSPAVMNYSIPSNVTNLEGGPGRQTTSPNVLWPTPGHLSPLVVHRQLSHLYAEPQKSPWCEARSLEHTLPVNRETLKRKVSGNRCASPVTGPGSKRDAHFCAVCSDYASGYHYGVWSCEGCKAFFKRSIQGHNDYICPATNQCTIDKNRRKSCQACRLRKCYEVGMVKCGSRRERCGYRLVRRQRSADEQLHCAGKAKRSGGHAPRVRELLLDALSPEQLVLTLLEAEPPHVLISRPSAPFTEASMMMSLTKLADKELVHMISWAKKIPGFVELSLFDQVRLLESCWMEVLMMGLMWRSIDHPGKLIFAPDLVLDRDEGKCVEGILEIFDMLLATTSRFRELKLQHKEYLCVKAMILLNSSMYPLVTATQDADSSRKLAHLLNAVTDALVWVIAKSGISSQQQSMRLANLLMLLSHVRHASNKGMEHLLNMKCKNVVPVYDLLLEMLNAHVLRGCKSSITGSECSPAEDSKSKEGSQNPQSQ
Description: (§2) Antagonist activity at human Gal4-fused ERbeta expressed in HEK293 cells assessed as inhibition of E2-induced transcriptional activation after 24 hrs by luciferase/beta-galactosidase reporter gene assay

Estrogen receptor [5] = biological target: T1, Estrogen receptor; conditions: hek293
Description: (§3) Agonist activity at human Gal4-fused ERalpha expressed in HEK293 cells assessed as transcriptional activation after 24 hrs by luciferase/beta-galactosidase reporter gene assay

Estrogen receptor [6] = biological target: T1, Estrogen receptor; remark: listed apart in the source
Description: as §3

Estrogen receptor beta [7] = biological target: T2, Estrogen receptor beta; experiment: Agonist activity at human Gal4-fused ERbeta expressed in HEK293 cells assessed as transcriptional activation at 30 uM after 24 hrs by luciferase/beta-galactosidase reporter gene assay relative to estradiol; format: cell-based
Estrogen receptor [8] = biological target: T1, Estrogen receptor; conditions: hek293; remark: listed apart in the source
Description: as §1

Estrogen receptor beta [9] = biological target: T2, Estrogen receptor beta; conditions: hek293
Description: as §2

[10] = biological target: T3, Estrogen receptor (Homo sapiens) (UniProt P03372); experiment: Agonist activity at human Gal4-fused ERalpha expressed in HEK293 cells assessed as transcriptional activation at 30 uM after 24 hrs by luciferase/beta-galactosidase reporter gene assay relative to estradiol; format: cell-based
T3 sequence (whole entry): T1 sequence (P03372 whole entry)

Estrogen receptor beta [11] = biological target: T2, Estrogen receptor beta; experiment: Antagonist activity at human Gal4-fused ERbeta expressed in HEK293 cells assessed as inhibition of E2-induced transcriptional activation at 30 uM after 24 hrs by luciferase/beta-galactosidase reporter gene assay relative to control; format: cell-based

EC50 (Estrogen receptor [6]) [µM]	Compound	pKa (physchem [1])	logP (physchem [2])	IC50 (Estrogen receptor [3]) [µM]	IC50 (Estrogen receptor beta [4]) [µM]	EC50 (Estrogen receptor [5])	Activity (Estrogen receptor beta [7]) [%]	IC50 (Estrogen receptor [8])	IC50 (Estrogen receptor beta [9])	Activity [10] [%]	inhibition (Estrogen receptor beta [11]) [%]
–	B.Oc1ccc(P(c2ccccc2)c2ccccc2)cc1	8.81	4.96	12	2	Not Active	–	–	–	–	–
–	B.CP(c1ccccc1)c1ccc(O)cc1 (stereo unspecified) [listing 1 of 2 here]	8.83	3.38	9.8	2.5	Not Active	–	–	–	–	–
–	Oc1ccc(P(=S)(c2ccccc2)c2ccccc2)cc1	8.6	4.08	20	13	Not Active	–	–	–	–	–
> 30	C[Si](C)(c1ccccc1)c1ccc(O)cc1	10.2	4.8	13	5	–	20	–	–	–	–
–	Oc1ccc(P(c2ccccc2)c2ccccc2)cc1	9.48	5.06	–	–	Not Active	–	Not Active	Not Active	–	–
–	CP(=S)(c1ccccc1)c1ccc(O)cc1 (stereo unspecified)	8.65	2.69	–	–	–	24	Not Active	Not Active	24	–
–	CP(=[Se])(c1ccccc1)c1ccc(O)cc1 (stereo unspecified)	8.64	3.27	–	–	Not Active	24	Not Active	–	–	30
19	CP(=O)(c1ccccc1)c1ccc(O)cc1 (stereo unspecified)	8.63	1.88	–	–	–	36	Not Active	Not Active	–	–
–	B.CP(c1ccccc1)c1ccc(O)cc1 (stereo unspecified) [listing 2 of 2 here]	–	–	–	–	–	16	–	–	–	–
–	CP(c1ccccc1)c1ccc(O)cc1 (stereo unspecified)	9.49	3.67	–	–	Not Active	–	Not Active	Not Active	–	–
–	O=P(c1ccccc1)(c1ccccc1)c1ccc(O)cc1	8.51	3.22	–	–	Not Active	–	Not Active	Not Active	–	–

Compound	EC50 (Estrogen receptor [6]) [µM]	pKa (physchem [1])	logP (physchem [2])	IC50 (Estrogen receptor [3]) [µM]	IC50 (Estrogen receptor beta [4]) [µM]	EC50 (Estrogen receptor [5])	Activity (Estrogen receptor beta [7]) [%]	IC50 (Estrogen receptor [8])	IC50 (Estrogen receptor beta [9])	Activity [10] [%]	inhibition (Estrogen receptor beta [11]) [%]
CC(C)(c1ccccc1)c1ccc(O)cc1	4.4	10.6	4.2	24	13	–	38	–	–	–	–
